Each structure is given as a SMILES string. Structures can show the parent of a compound that is named as a salt. Bounds are passed on as bounds.

recombinant human CYP17 enzyme, sequence (P05093 whole entry): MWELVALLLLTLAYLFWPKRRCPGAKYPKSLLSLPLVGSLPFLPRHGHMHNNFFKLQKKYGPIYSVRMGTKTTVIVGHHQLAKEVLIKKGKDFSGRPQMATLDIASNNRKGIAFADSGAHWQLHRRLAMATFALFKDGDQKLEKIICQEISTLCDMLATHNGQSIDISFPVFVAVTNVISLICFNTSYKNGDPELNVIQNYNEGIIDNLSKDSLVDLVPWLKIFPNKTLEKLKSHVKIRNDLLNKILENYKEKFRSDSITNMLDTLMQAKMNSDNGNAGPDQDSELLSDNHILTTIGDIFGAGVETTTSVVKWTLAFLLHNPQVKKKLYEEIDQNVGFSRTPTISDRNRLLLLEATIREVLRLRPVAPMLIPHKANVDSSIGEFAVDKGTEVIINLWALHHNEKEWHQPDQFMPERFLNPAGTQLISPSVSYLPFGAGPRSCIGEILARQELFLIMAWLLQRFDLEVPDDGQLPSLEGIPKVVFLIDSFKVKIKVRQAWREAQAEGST

The target in one assay is recombinant human CYP17 enzyme (Homo sapiens (Human), UniProt P05093). Put plainly: Cytochrome P450, 17-20 lyase (CYP17-lyase) assay, tritiated acetic acid release from 17-α-hydroxy pregnenolone [21-3H]. Particulars: human CYP17, substrate 0.25 μM; read-out: Lyase IC 50 nM Human/Rat (Human). Format: biochemical. The text has this:
Assay method was adopted from a published protocol with some modifications to suit our requirements (Dmitry N Grigoryev et al, Analytical Biochemistry, (1999) 267, 319-330). […] Chloroform extraction removes the radioactive steroids and acetic acid is taken into aqueous layer. The tritiated acetic acid released in the assay thus extracted is quantified to determine the enzyme activity. […] The purified cell membrane preparations were used as the source for Human CYP17 enzyme. […] O, Nijar, et al., J Med Chem, (1998) 41, 902-912). […] Km for this substrate was determined by monitoring the tritiated acetic acid release as a function of substrate concentration. […] For the Km determination, the data was fit to a hyperbolic equation (Graphpad Prism® software IV). […] (Dmitry N. Grigoryev et al, Analytical Biochemistry (1999) 267, 319-330) […] NADPH is used at a final concentration of 4.2 mM. Total reaction volume was made up to 50 μL with 50 mM Phosphate buffer pH 7.5. The reaction mixture was incubated at room temperature for 90 minutes with gentle shaking. The reaction was stopped by the addition of 100 μL of buffer. 500 μL of 5% freshly prepared activated charcoal was added to the solution and mixed well by vortexing. The samples were centrifuged at 17568×g for 5 minutes. (14000 rpm). The supernatant was carefully transferred to fresh tube and 1.3 mL of scintillation fluid was added, mixed by vortexing. The radioactivity was measured in a 1450 MicroBeta TriLux™ scintillation counter from Wallac-Perkin Elmer®, USA. The measurements were carried out in 2.0 mL Eppendorforf™ tubes. […] The amount of tritiated acetic acid released is proportional to the lyase activity. Percent lyase activity in presence of inhibitor was calculated using the formula given below. […] Enzyme reaction in presence of inhibitor. • Positive control: […] For IC50 determination, the % inhibition was plotted as a function of inhibitor concentration. The data was fitted to sigmoidal equation using Graphpad Prism® software IV to generate IC50 values.
With `Cc1ccncc1N1CCN(c2ccc3c(N)n[nH]c3c2)C1=O` [Example 123A, 1-(3-Amino-1H-indazol-6-yl)-3-(4-methyl-pyridin-3-yl)-imidazolidin-2-one], the IC50 amounted to 10 nM.
Still for that read-out and setting: the value for `Cc1ccncc1N1CCN(c2ccc3onc(C)c3c2)C1=O` [Example 101A, 1-(3-Methyl-benzo[d]isoxazol-5-yl)-3-(4-methyl-pyridin-3-yl)-imidazolidin-2-one] was 46 nM.
The same measure, in the same setting: in the case of `Cc1ccncc1N1CCN(c2ccc3c(N)nn(C)c3c2)C1=O` [Example 143A, 1-(3-Amino-1-methyl-1H-indazol-6-yl)-3-(4-methyl-pyridin-3-yl)-imidazolidin-2-one] it was 116 nM; in that of `Cc1ccncc1N1CCN(c2ccccc2)C1=O` [Example 69A, 1-(4-Methyl-pyridin-3-yl)-3-phenyl-imidazolidin-2-one], 34 nM.
As for `Cc1ccncc1-n1ccn(-c2ccc3sccc3c2)c1=O` [Example 139A, 1-Benzo[b]thiophen-5-yl-3-(4-methyl-pyridin-3-yl)-1,3-dihydro-imidazol-2-one], the IC50 was determined as 83 nM.
Take `Cc1ccncc1N1CCN(c2cnc3ccccn23)C1=O` [Example 119A, 1-Imidazo[1,2-a]pyridin-3-yl-3-(4-methyl-pyridin-3-yl)-imidazolidin-2-One]: the IC50 is 3200 nM.
As for `Cc1ccncc1N1CCN(c2ccc3[nH]nc(N)c3c2)C1=O` [Example 118A, 1-(3-Amino-1H-indazol-5-yl)-3-(4-methyl-pyridin-3-yl)-imidazolidin-2-one], the IC50 turned out to be 17 nM.
On the same count and under the same terms, the value for `Cc1ccncc1N1CCN(c2csc3ccncc23)C1=O` [Example 136A, 1-(4-Methyl-pyridin-3-yl)-3-thieno[3,2-c]pyridin-3-yl-imidazolidin-2-one] was 500 nM.
As to `COc1cccc(N2CCN(c3cnccc3C)C2=O)c1` [Example 56A, 1-(3-Methoxy-phenyl)-3-(4-methyl-pyridin-3-yl)-imidazolidin-2-one], the IC50 came to 25 nM.
As for `Cc1ccncc1N1CCN(c2ccc3scnc3c2)C1=O` [Example 62A, 1-Benzothiazol-5-yl-3-(4-methyl-pyridin-3-yl)-imidazolidin-2-one], the IC50 was found to be 426 nM.
Still for that read-out and setting: the value for `Cc1ccncc1N1CCN(c2ccc(F)c(Cl)c2)C1=O` [Example 46A, 1-(3-Chloro-4-fluoro-phenyl)-3-(4-methyl-pyridin-3-yl)-imidazolidin-2-one] was 10 nM; that for `Cc1ccncc1N1CCN(c2ccc(F)c(C(F)F)c2)C1=O` [Example 91A, 1-(3-Difluoromethyl-4-fluoro-phenyl)-3-(4-methyl-pyridin-3-yl)-imidazolidin-2-one] was 4.3 nM; that for `Cc1ccncc1N1CCN(c2ccc(F)c(C(F)(F)F)c2)C1=O` [Example 90A, 1-(4-Fluoro-3-trifluoromethyl-phenyl)-3-(4-methyl-pyridin-3-yl)-imidazolidin-2-one] was 5 nM.
Consider `Cc1ccc(N2CCN(c3cnccc3C)C2=O)s1` [Example 15A, 1-(4-Methyl-pyridin-3-yl)-3-(5-methyl-thiophen-2-yl)-imidazolidin-2-one], for which the IC50 was 10 nM.
As to `Cc1ccncc1N1CCN(c2ccn3c(Cl)cnc3c2)C1=O` [Example 145A, 1-(3-Chloro-imidazo[1,2-a]pyridin-7-yl)-3-(4-methyl-pyridin-3-yl)-imidazolidin-2-one], the IC50 was 31 nM.
The same measure, in the same setting: in the case of `Cc1cc(Cl)ccc1N1CCN(c2cnccc2C)C1=O` [Example 89A, 1-(4-Chloro-2-methyl-phenyl)-3-(4-methyl-pyridin-3-yl)-imidazolidin-2-one] it was 326 nM; in that of `Cc1ccncc1N1CCN(c2c[nH]c3ccccc23)C1=O` [Example 107A, 1-(1H-Indol-3-yl)-3-(4-methyl-pyridin-3-yl)-imidazolidin-2-one], 334 nM; in that of `Cn1cncc1N1CCN(c2ccc3ncsc3c2)C1=O` [Example 188A, 3-Benzothiazol-6-yl-3′-methyl-4,5-dihydro-3H,3′H-[1,4]biimidazolyl-2-one], 195 nM.
The same measure, in the same setting: in the case of `Cc1ccncc1N1CCN(c2ccc3cn[nH]c3c2)C1=O` [Example 121A, 1-(1H-Indazol-6-yl)-3-(4-methyl-pyridin-3-yl)-imidazolidin-2-one] it was 2.5 nM; in that of `Cc1ccncc1N1CCN(c2ccc3c(ccn3C)c2)C1=O` [Example 134A, 1-(1-Methyl-1H-indol-5-yl)-3-(4-methyl-pyridin-3-yl)-imidazolidin-2-one], 950 nM.
The same measure, in the same setting: in the case of `Cc1ccncc1N1CCN(c2ccc(-c3ccc(F)cc3)cc2)C1=O` [Example 87A, 1-(4′-Fluoro-biphenyl-4-yl)-3-(4-methyl-pyridin-3-yl)-imidazolidin-2-one] it was 255 nM; in that of `CC(O)c1ccncc1N1CCN(c2ccc3ncsc3c2)C1=O` (centres unmarked) [Example 158A, 1-(benzo[d]thiazol-6-yl)-3-(4-(1-hydroxyethyl)pyridin-3-yl)imidazolidin-2-one], 38 nM; in that of `Cc1ccncc1N1CCN(c2ccc(C(F)(F)F)cc2)C1=O` [Example 50A], 51 nM.
For the compound `COC(OC)c1ccncc1N1CCN(c2ccc3ncsc3c2)C1=O` [Example 149A, 1-Benzothiazol-6-yl-3-(4-dimethoxymethyl-pyridin-3-yl)-imidazolidin-2-one], the IC50 was found to be 37 nM.
`Cc1ccncc1N1CCN(c2ccc3[nH]nnc3c2)C1=O` [Example 141A, 1-(1H-Benzotriazol-5-yl)-3-(4-methyl-pyridin-3-yl)-imidazolidin-2-one Hydrochloride]: the IC50 came out at 13 nM.
Turning to `Cc1cc(NCc2ccncc2N2CCN(c3ccc4ncsc4c3)C2=O)n[nH]1` [Example 182A, 1-Benzothiazol-6-yl-3-{4-[(5-methyl-1H-pyrazol-3-ylamino)-methyl]-pyridin-3-yl}-imidazolidin-2-one], the IC50 was determined as 27 nM.
The same measure, in the same setting: in the case of `O=C1N(c2ccc3ncsc3c2)CCN1c1cnccc1CN1CCCC1` [Example 176A, 1-Benzothiazol-6-yl-3-(4-pyrrolidin-1-ylmethyl-pyridin-3-yl)-imidazolidin-2-one] it was 39 nM; in that of `Cc1ccncc1N1CCN(c2ccc3nccn3c2)C1=O` [Example 94A, 1-Imidazo[1,2-a]pyridin-6-yl-3-(4-methyl-pyridin-3-yl)-imidazolidin-2-one], 110 nM.

Staying with this assay, now noted: human CYP17, substrate 0.25 μM; read-out: Lyase IC 50 Human/Rat (Human).
Regarding `Cc1ccncc1N1CCCN(c2ccc3ccccc3c2)C1=O` [Example 130A, 1-(4-Methyl-pyridin-3-yl)-3-naphthalen-2-yl-tetrahydro-pyrimidin-2-one], the IC50 is above 10000 nM.
Same read-out and setting: in the case of `CN1CCC(COc2ccncc2N2CCN(c3ccc4ncsc4c3)C2=O)CC1` [Example 184A, 1-Benzothiazol-6-yl-3-[4-(1-methyl-piperidin-4-ylmethoxy)-pyridin-3-yl]-imidazolidin-2-one] it was above 10000 nM; in that of `O=C1N(c2ccc3ncsc3c2)CCN1c1ccccn1` [Example 191A, 1-Benzothiazol-6-yl-3-pyridin-2-yl-imidazolidin-2-one], above 10000 nM; in that of `NC(=O)c1ccncc1N1CCN(c2ccc3ncsc3c2)C1=O` [Example 185A, 3-(3-Benzothiazol-6-yl-2-oxo-imidazolidin-1-yl)-isonicotinamide], above 10000 nM.
Turning to `Cc1nc2cc(N3CCN(c4cnccc4C)C3=O)ccc2o1` [Example 93A, 1-(2-Methyl-benzooxazol-5-yl)-3-(4-methyl-pyridin-3-yl)-imidazolidin-2-one], the IC50 was above 10000 nM.
On the same count and under the same terms, in the case of `Cc1ccncc1N1CCN(c2cc3cnccc3s2)C1=O` [Example 120A, 1-(4-Methyl-pyridin-3-yl)-3-thieno[3,2-c]pyridin-2-yl-imidazolidin-2-one] it was 4000 nM.
For the compound `COc1nccc2scc(N3CCN(c4cnccc4C)C3=O)c12` [Example 110A, 1-(4-Methoxy-thieno[3,2-c]pyridin-3-yl)-3-(4-methyl-pyridin-3-yl)-imidazolidin-2-one], the IC50 is above 10000 nM.
Turning to `Cc1ccncc1N1CC(C)(C)N(c2ccc3ncsc3c2)C1=O` [Example 163A, 3-Benzothiazol-6-yl-4,4-dimethyl-1-(4-methyl-pyridin-3-yl)-imidazolidin-2-one], the IC50 is above 10000 nM.
The same measure, in the same setting: in the case of `Cc1ccncc1N1CCN(c2cn(C)c3cccc(C#N)c23)C1=O` [Example 146A, 1-Methyl-3-[3-(4-methyl-pyridin-3-yl)-2-oxo-imidazolidin-1-yl]-1H-indole-4-carbonitrile] it was above 10000 nM.

The assay is the same for the next values; noted with them: substrate varied from 0.03125 μM to 1 μM, hyperbolic fit; read-out: Km (Michaelis Menton constant) of the substrate.
Take `CC(=O)C1(O)CCC2C3CC=C4CC(O)CCC4(C)C3CCC21C` (stereo not drawn) [17-α-hydroxy pregnenolone [21-3H], reference compound]: the Km (as a rule, the substrate concentration at which the rate is half of its maximum) came to 0.25 µM.
